Where two headings read alike, the source gives them in different places.
What was measured:
[1] = target: Gal4 DNA binding domain fused to the LBD of LXRβ in HEK293 cells (Homo sapiens (Human), UniProt P55055); assay: cell-based
[2] = target: Gal4 DNA binding domain fused to the LBD of LXRα in HEK293 cells (Homo sapiens (Human), UniProt Q13133); assay: LXR luciferase transcriptional reporter gene assay, agonist mode, LXRα; assay type: cell-based
[3] = target: LXR α LBD protein (Homo sapiens (Human), UniProt Q13133); assay: LXR α radioligand binding assay (SPA, competition with [3H]TO901317); settings: read-out: LXRα Binding Ki
[4] = target: LXR β LBD protein (Homo sapiens (Human), UniProt P55055); assay: biochemical; assay type: binding
[5] = Biological Test Example 2, agonist mode
[6] = agonist mode, read-out: Cell LXRα EC50

Chain of Gal4 DNA binding domain fused to the LBD of LXRα in HEK293 cells (Q13133 209-447): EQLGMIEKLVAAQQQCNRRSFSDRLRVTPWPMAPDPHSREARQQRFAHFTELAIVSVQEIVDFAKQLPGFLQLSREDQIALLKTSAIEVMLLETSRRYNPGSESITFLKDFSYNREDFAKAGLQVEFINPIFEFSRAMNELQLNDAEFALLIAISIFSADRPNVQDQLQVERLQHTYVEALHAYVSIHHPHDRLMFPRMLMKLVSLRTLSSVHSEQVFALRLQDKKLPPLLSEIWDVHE
Chain of LXR α LBD protein (Q13133 209-447): as above
Chain of LXR β LBD protein (P55055 222-460 limits assumed): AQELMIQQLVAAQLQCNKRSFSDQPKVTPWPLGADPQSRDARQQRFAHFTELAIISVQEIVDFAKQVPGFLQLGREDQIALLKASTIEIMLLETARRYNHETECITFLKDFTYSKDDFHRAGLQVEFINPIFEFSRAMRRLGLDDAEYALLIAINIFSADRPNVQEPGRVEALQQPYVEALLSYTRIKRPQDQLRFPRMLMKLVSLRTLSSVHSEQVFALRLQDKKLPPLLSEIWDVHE
Chain of Gal4 DNA binding domain fused to the LBD of LXRβ in HEK293 cells (P55055 222-460 limits assumed): as above

Compound | EC50 [1] [nM] | Cell LXRα efficacy [2] | Ki [3] [nM] | Cell LXRβ efficacy ([1]; agonist mode) | Ki ([4]; read-out: LXRβ Binding Ki) [nM] | other results
CC(C)[C@@H]1CN(c2ccc(F)c(S(C)(=O)=O)c2)CCN1C(=O)OC(C)(C)C(F)(F)F [5-2, 1,1,1-trifluoro-2-methylpropan-2-yl (R)-4-(4-fluoro-3-(methylsulfonyl)phenyl)-2-isopropylpiperazine-1-carboxylate] | 111 | 947 (73) % | 163 | – | – | EC50 [2]: 947 nM
CC(C)[C@@H]1CN(c2ccc(F)c(S(C)(=O)=O)c2)CCN1C(=O)OC(C)C(F)(F)F (stereo partly drawn) [5-3, 1,1,1-trifluoropropan-2-yl (2R)-4-(4-fluoro-3-(methylsulfonyl)phenyl)-2-isopropylpiperazine-1-carboxylate] | 198 | 1595 (86) % | 474 | – | – | EC50 [2]: 1590 nM
CC(C)[C@@H]1CN(c2ccc(F)c(S(C)(=O)=O)c2)CCN1c1nccc(CO)n1 [11-15, (R)-(2-(4-(4-fluoro-3-(methylsulfonyl)phenyl)-2-isopropylpiperazin-1-yl)pyrimidin-4-yl)methanol] | 2480 | – | – | 2479 (33) % | – | Ki [4]: 930 nM
CC(C)[C@@H]1CN(c2ccc(CO)c(S(C)(=O)=O)c2)CCN1c1nc(C(F)(F)F)c(CO)o1 [11-16, (R)-(2-(4-(4-(hydroxymethyl)-3-(methylsulfonyl)phenyl)-2-isopropylpiperazin-1-yl)-4-(trifluoromethyl)oxazol-5-yl)methanol] | 467 | – | – | 467 (76) % | 95 | –
CC(C)[C@@H]1CN(c2ccc(CO)c(S(C)(=O)=O)c2)CCN1c1nc(C(F)(F)F)c(CO)s1 [11-17, (R)-(2-(4-(4-(hydroxymethyl)-3-(methylsulfonyl)phenyl)-2-isopropylpiperazin-1-yl)-4-(trifluoromethyl)thiazol-5-yl)methanol] | 292 | – | – | 292 (89) % | 53 | –
CC(C)[C@@H]1CN(c2ccc(F)c(S(C)(=O)=O)c2)CCN1c1ncc(C(=O)N(C)C2CN(C(=O)OC(C)(C)C)C2)c(C(F)(F)F)n1 [17-22, tert-butyl (R)-3-(2-(4-(4-fluoro-3-(methylsulfonyl)phenyl)-2-isopropylpiperazin-1-yl)-N-methyl-4-(trifluoromethyl)pyrimidine-5-carboxamido)azetidine-1-carboxylate] | > 20000 | – | 670 | – | – | EC50 [2]: > 20000 nM
CC(C)[C@@H]1CN(c2cccc(S(C)(=O)=O)c2)CCN1c1ccc(C(C)(F)F)cn1 [20-2, (R)-1-(5-(1,1-difluoroethyl)pyridin-2-yl)-2-isopropyl-4-(3-(methylsulfonyl)phenyl)piperazine] | 706 | – | – | 706 (43) % | 73 | –
CC(C)[C@@H]1CN(c2ccc(F)c(S(C)(=O)=O)c2)CCN1c1ccc(C(C)(O)C(F)(F)F)cn1 (stereo partly drawn) [20-3, 1,1,1-trifluoro-2-(6-((R)-4-(4-fluoro-3-(methylsulfonyl)phenyl)-2-isopropylpiperazin-1-yl)pyridin-3-yl)propan-2-ol] | 443 | – | – | 443 (48) % | 52 | –
CC(C)C1CN(c2ccc(C#N)c(S(C)(=O)=O)c2)CCN1CC1CCC(C(F)(F)F)CC1 [50-2, 4-((S)-3-isopropyl-4-(((1r,4S)-4-(trifluoromethyl)cyclohexyl)methyl)piperazin-1-yl)-2-(methylsulfonyl)benzonitrile] | – | 721 (72) % | 358 | – | – | Cell LXRβ efficacy [1, 5]: 542 (85) %; EC50 ([2]; read-out: Cell LXRα EC50): 721 nM
CC1(C)CCC(O)(CN2CCN(c3cccc(S(C)(=O)=O)c3)C[C@H]2c2ccccc2)CC1 [53-2, (R)-4,4-dimethyl-1-((4-(3-(methylsulfonyl)phenyl)-2-phenylpiperazin-1-yl)methyl)cyclohexan-1-ol] | 2080 | – | – | – | – | Ki ([4]; Biological Test Example 1, read-out: LXRβ Binding Ki): 609 nM; Cell LXRβ efficacy [1, 5]: 2082 (56) %
CC(C)[C@@H]1CN(c2ccc(F)c(S(C)(=O)=O)c2)CCN1c1nc2cccnc2s1 [Cpd No 7-57, (R)-2-(4-(4-fluoro-3-(methylsulfonyl)phenyl)-2-isopropylpiperazin-1-yl)thiazolo[5,4-b]pyridine] | 44 | – | – | – | 12 | Cell LXRβ efficacy [1]: 44 (90) %
CC(C)[C@@H]1CN(c2ccc(CO)c(S(C)(=O)=O)c2)CCN1c1ccc(C(F)(F)F)nc1 [Cpd No 20-4, (R)-(4-(3-isopropyl-4-(6-(trifluoromethyl)pyridin-3-yl)piperazin-1-yl)-2-(methylsulfonyl)phenyl)methanol] | 28 | – | – | 28 (105) % | 20 | –
CC(C)[C@@H]1CN(c2ccc(CO)c(S(C)(=O)=O)c2)CCN1c1nc(C(F)(F)F)c(C(C)(C)O)s1 [Cpd No 27-1, (R)-2-(2-(4-(4-(hydroxymethyl)-3-(methylsulfonyl)phenyl)-2-isopropylpiperazin-1-yl)-4-(trifluoromethyl)thiazol-5-yl)propan-2-ol] | – | 225 (97) % | 27 | – | – | EC50 [2, 6]: 225 nM
COc1cnc(N2CCN(c3ccc(F)c(S(C)(=O)=O)c3)C[C@H]2C(C)C)nc1C(F)(F)F [Cpd No 29-1, (R)-2-(4-(4-fluoro-3-(methylsulfonyl)phenyl)-2-isopropylpiperazin-1-yl)-5-methoxy-4-(trifluoromethyl)pyrimidine] | – | 266 (104) % | 9 | – | – | EC50 [2, 6]: 266 nM
CC(C)[C@@H]1CN(c2ccc(F)c(S(C)(=O)=O)c2)CCN1c1ncc(C(F)(F)F)c(Cl)n1 [Cpd No 36-1, (R)-4-chloro-2-(4-(4-fluoro-3-(methylsulfonyl)phenyl)-2-isopropylpiperazin-1-yl)-5-(trifluoromethyl)pyrimidine] | – | 305 (100) % | 30 | – | – | EC50 ([2]; read-out: Cell LXRα EC50): 305 nM
CC(O)c1nc(N2CCN(c3ccc(F)c(S(C)(=O)=O)c3)C[C@H]2C(C)C)ncc1C(F)(F)F (stereo partly drawn) [Cpd No 38-1, 1-(2-((R)-4-(4-fluoro-3-(methylsulfonyl)phenyl)-2-isopropylpiperazin-1-yl)-5-(trifluoromethyl)pyrimidin-4-yl)ethan-1-ol] | – | 165 (89) % | 67 | – | – | EC50 [2, 6]: 165 nM
CC(C)[C@@H]1CN(c2ccc(F)c(S(C)(=O)=O)c2)CCN1c1ncc(C(F)(F)F)c(C#N)n1 [Cpd No 43-1, (R)-2-(4-(4-fluoro-3-(methylsulfonyl)phenyl)-2-isopropylpiperazin-1-yl)-5-(trifluoromethyl)pyrimidine-4-carbonitrile] | – | 136 (101) % | 26 | – | – | EC50 ([2]; read-out: Cell LXRα EC50): 136 nM
CC(C)[C@H]1CN(c2ccc(C#N)c(S(C)(=O)=O)c2)CCN1C[C@H]1CC[C@@H](C(F)(F)F)CC1 [Cpd No 50-1, 4-((S)-3-isopropyl-4-(((1s,4R)-4-(trifluoromethyl)cyclohexyl)methyl)piperazin-1-yl)-2-(methylsulfonyl)benzonitrile] | – | 181 (100) % | 107 | – | – | Cell LXRβ efficacy [1, 5]: 88%; EC50 ([2]; read-out: Cell LXRα EC50): 181 nM
CC(=O)NCc1ccc(N2CCN(c3nccc(C(F)(F)F)n3)[C@H](C(C)C)C2)cc1S(C)(=O)=O [Cpd No 54-1, (R)-N-(4-(3-isopropyl-4-(4-(trifluoromethyl)pyrimidin-2-yl)piperazin-1-yl)-2-(methylsulfonyl)benzyl)acetamide] | – | – | – | – | – | Cell LXRα efficacy [2, 5]: 72%; EC50 ([2]; Biological Test Example 2, agonist mode, read-out: Cell LXRα EC50): 2200 nM; Ki ([3]; Biological Test Example 1): 716 nM

From patent publication US10144715B2, “Piperazine derivatives as liver X receptor modulators” (priority 2014, dated 2018)
